Data reported in patent US6563024B1, “Process for transformation of mature trees of Eucalyptus plants” (OJI Paper Co., Ltd., priority 1999, dated 2003).
Where “and” joins values, the source holds several entries; their conditions need not be identical. Equal entries are not always repeated.

Assays:
[1] = tested on: precocious branches of Eucalyptus camaldulensis; test: Transgenic calli formation after infection induction treatment of precocious branches with NAA, then Agrobacterium tumefaciens EHA101/pIG121-Hm infection; type: cell-based; details: 30 days
Method: Culturing was performed for 7 to 14 days at a temperature of 26 to 28° C. under dark conditions. After cutting the precocious branches subjected to the infection induction treatment to segments of 2 to 10 mm length with a knife, the segments were immersed in the culture medium of Agrobacterium tumefaciens strain EHA101/pIG121-Hm prepared according to the method described above. After wiping off the culture medium adhered to the segments of the precocious branches with filter paper, the sections of the precocious branches were embedded in an infection medium containing 2 mg/l NAA, 0.2 mg/l 4-PU, 1 mM galactose, 10 μM acetosyringone, 3% sucrose and 0.02% gellan gum in B5 basal medium, followed by stationary-culturing for 2 days at a temperature of 26° C. and under dark conditions to infect the precocious branches with Agrobacterium tumefaciens. With the exception of inducing precocious branches from three Eucalyptus camaldulensis plants, and performing infection induction treatment with the concentration of NAA in the precocious branch infection induction medium at 0, 0.02, 0.2 or 2.0 mg/l, the precocious branches were infected with Agrobacterium tumefaciens strain EHA101/pIG121-Hm in the same manner as described in Example 1, and the number of transgenic calli that express intron GUS gene was investigated 30 days after the start of the infection induction treatment. For plant 1, the case of testing precocious branches of the untreated group on which infection treatment was not performed, transformation efficiency of 23.1% was obtained. […] In addition, in the untreated group of plant 2 as well in which infection was difficult, transgenic calli were observed following infection induction by NAA. One the basis of these findings, infection induction treatment of precocious branches was clearly shown to be effective in improving transformation efficiency.

[2] = tested on: precocious branches of Eucalyptus camaldulensis; test: Transgenic calli formation with varied NAA concentration in infection medium and sterilization medium; type: cell-based; details: 4-PU 0.2 mg/l
Method: After cutting the precocious branches subjected to the infection induction treatment to segments of 2 to 10 mm length with a knife, the segments were immersed in the culture medium of Agrobacterium tumefaciens strain EHA101/pIG121-Hm prepared according to the method described above. After wiping off the culture medium adhered to the segments of the precocious branches with filter paper, the sections of the precocious branches were embedded in an infection medium containing 2 mg/l NAA, 0.2 mg/l 4-PU, 1 mM galactose, 10 μM acetosyringone, 3% sucrose and 0.02% gellan gum in B5 basal medium, followed by stationary-culturing for 2 days at a temperature of 26° C. and under dark conditions to infect the precocious branches with Agrobacterium tumefaciens. The explant segments treated as described above were transplanted to a sterilization medium containing 2 mg/l NAA, 0.2 mg/l 4-PU or 4CPPU, 3% sucrose, and 500 mg/l of carbenicillin as antibiotic for sterilizing Agrobacterium attached to the explant segments, and were vertical-rotary-cultured for 7 - days at a temperature of 26° C. and rotating speed of 2 rpm under dark conditions to sterilize the Agrobacterium tumefaciens. With the exception of inducing precocious branches from a different plant of Eucalyptus camaldulensis, and the NAA concentrations used in the infection medium and sterilization medium, the precocious branches were infected with agrobacterium tumefaciens strain EHA101/pIG121-Hm in the same manner as described in Example 1 to produce transgenic calli.

O=C(O)Cc1cccc2ccccc12 [NAA, naphthaleneacetic acid]
Transformation efficiency = No. of transgenic calli/No. of tested segments × 100 ([1]; plant No. 1, NAA 0.02 mg/l in infection induction medium): 72.9% and 73%
Transformation efficiency = No. of transgenic calli/No. of tested segments × 100 ([1]; plant No. 1, NAA 0.2 mg/l in infection induction medium): 64%
Transformation efficiency = No. of transgenic calli/No. of tested segments × 100 ([1]; plant No. 1, NAA 2.0 mg/l in infection induction medium): 49%
Transformation efficiency = No. of transgenic calli/No. of tested segments × 100 ([1]; plant No. 2, NAA 0.02 mg/l in infection induction medium): 8%
Transformation efficiency = No. of transgenic calli/No. of tested segments × 100 ([1]; plant No. 2, NAA 0.2 mg/l in infection induction medium): 31%
Transformation efficiency = No. of transgenic calli/No. of tested segments × 100 ([1]; plant No. 2, NAA 2.0 mg/l in infection induction medium): 19%
Transformation efficiency = No. of transgenic calli/No. of tested segments × 100 ([1]; plant No. 3, NAA 0.02 mg/l in infection induction medium): 69%
Transformation efficiency = No. of transgenic calli/No. of tested segments × 100 ([1]; plant No. 3, NAA 0.2 mg/l in infection induction medium): 38%
Transformation efficiency = No. of transgenic calli/No. of tested segments × 100 ([1]; plant No. 3, NAA 2.0 mg/l in infection induction medium): 59%
Transformation efficiency ([2]; infection medium NAA 0.02 mg/l, sterilization medium NAA 0.02 mg/l): 14%
Transformation efficiency ([2]; infection medium NAA 0.02 mg/l, sterilization medium NAA 2 mg/l): 4%
Transformation efficiency ([2]; infection medium NAA 2 mg/l, sterilization medium NAA 0.02 mg/l): 11%
Transformation efficiency ([2]; infection medium NAA 2 mg/l, sterilization medium NAA 2 mg/l): 42%
